From the supplement of paper PMC11061612

How the values were obtained:
CAL-72 (Osteosarcoma) [1] = test: Bliss excess, mean over the matrix (fraction); higher = more synergy
Summary of the method: (§1)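 Bliss excess equals the observed combination effect minus the expected value EA + EB − EA·EB, where EA and EB are the effects of each agent alone. Combination Emax is the second-highest inhibition within the matrix. Inhibition was scaled from CellTiter-Glo 2.0 luminescence, with 0 set by vehicle wells and 1 by blank wells, after 72 hours of two-drug dosing of cells plated in 1536-well plates.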

[2] = system: Detroit562 (Head and Neck Carcinoma); test: as above
Summary of the method: as §1

EW-11 (Ewing's Sarcoma) = test: as above
Summary of the method: as §1

[3] = system: KMRC-20 (Kidney Carcinoma); test: as above
Summary of the method: as §1

[4] = system: KYAE-1 (Esophageal Adenocarcinoma); test: as above
Summary of the method: as §1

[5] = system: LCLC-97TM1 (Non-Small Cell Lung Carcinoma); test: as above
Summary of the method: as §1

LOXIMVI (Melanoma) [6] = test: as above
Summary of the method: as §1

MPP-89 (Mesothelioma) = test: as above
Summary of the method: as §1

NCI-H2052 (Mesothelioma) = test: as above
Summary of the method: as §1

NCI-H2722 (Mesothelioma) = test: as above
Summary of the method: as §1

[7] = system: OE21 (Esophageal Squamous Cell Carcinoma); test: as above
Summary of the method: as §1

[8] = system: OV-56 (Ovarian Carcinoma); test: as above
Summary of the method: as §1

[9] = system: OVCAR-5 (Ovarian Carcinoma); test: as above
Summary of the method: as §1

[10] = system: SAS (Oral Cavity Carcinoma); test: as above
Summary of the method: as §1

[11] = system: SW1710 (Bladder Carcinoma); test: as above
Summary of the method: as §1

CAL-72 (Osteosarcoma) [12] = test: combination Emax (second highest fraction inhibited in the dose matrix, 72 h); higher = more inhibition; extreme values may be limits of the assay
Summary of the method: as §1

[13] = system: HuH-7 (Hepatocellular Carcinoma); test: as above
Summary of the method: as §1

[14] = system: KMRC-20 (Kidney Carcinoma); test: as above
Summary of the method: as §1

LOXIMVI (Melanoma) [15] = test: as above
Summary of the method: as §1

[16] = system: OE21 (Esophageal Squamous Cell Carcinoma); test: as above
Summary of the method: as §1

| SMILES | Bliss excess (CAL-72 (Osteosarcoma) [1]) | Bliss excess [2] | Bliss excess (EW-11 (Ewing's Sarcoma)) | Bliss excess [3] | Bliss excess [4] | Bliss excess [5] | Bliss excess (LOXIMVI (Melanoma) [6]) | Bliss excess (MPP-89 (Mesothelioma)) | Bliss excess (NCI-H2052 (Mesothelioma)) | Bliss excess (NCI-H2722 (Mesothelioma)) | Bliss excess [7] | Bliss excess [8] | Bliss excess [9] | Bliss excess [10] | Bliss excess [11] | combination Emax (CAL-72 (Osteosarcoma) [12]) | combination Emax [13] | combination Emax [14] | combination Emax (LOXIMVI (Melanoma) [15]) | combination Emax [16] |
| --- | --- | --- | --- | --- | --- | --- | --- | --- | --- | --- | --- | --- | --- | --- | --- | --- | --- | --- | --- | --- |
| Cc1c2c(nn1C)CSCc1cc(n(C)n1)CSc1cc(c3ccccc3c1)OCCCc1c(C(=O)O)n(C)c3c-2c(Cl)ccc13 [AZD5991] + CCN(CCO)CCCOc1ccc2c(Nc3cc(CC(=O)Nc4cccc(F)c4)[nH]n3)ncnc2c1 [AZD2811] (first compound max 1 µM, 7x7, partner max 1 µM) | 0.0582 | 0.0396 | 0.0342 | 0.0023 | 0.0422 | 0.0885 | 0.0212 | 0.0367 | -0.0253 | -0.0407 | 0.0345 | 0.0421 | -0.0434 | -0.0092 | 0.0088 | 0.473 | 0.219 | 0.312 | 0.339 | 0.522 |
| Cc1c2c(nn1C)CSCc1cc(n(C)n1)CSc1cc(c3ccccc3c1)OCCCc1c(C(=O)O)n(C)c3c-2c(Cl)ccc13 [AZD5991] + C[C@@H]1COCCN1C2=NC(=NC(=C2)C3(CC3)[S@](=N)(=O)C)C4=C5C=CNC5=NC=C4 [AZD6738] (first compound max 1 µM, 7x7, partner max 10 µM) | 0.0213 | 0.0364 | 0.0217 | -0.0153 | 0.0054 | 0.0401 | -0.0373 | -0.0426 | 0.039 | 0.0224 | 0.0157 | 0.0293 | -0.0248 | -0.0367 | 0.0299 | 0.832 | 0.279 | 0.516 | 0.742 | 0.844 |
| Cc1c2c(nn1C)CSCc1cc(n(C)n1)CSc1cc(c3ccccc3c1)OCCCc1c(C(=O)O)n(C)c3c-2c(Cl)ccc13 [AZD5991] + C[C@@H](Nc1cc(F)cc(F)c1)c1cc(C(=O)N(C)C)cc2c(=O)cc(N3CCOCC3)oc12 [AZD8186] (first compound max 1 µM, 7x7, partner max 3 µM) | -0.0149 | 0.0065 | -0.0009 | 0.0456 | -0.0125 | -0.003 | -0.0227 | 0.0083 | 0.0011 | -0.0434 | 0.0258 | 0.017 | -0.0106 | 0.0062 | -0.0083 | 0.365 | 0.208 | 0.262 | 0.268 | 0.397 |
| Cc1c2c(nn1C)CSCc1cc(n(C)n1)CSc1cc(c3ccccc3c1)OCCCc1c(C(=O)O)n(C)c3c-2c(Cl)ccc13 [AZD5991] + Cc1cc2ncnn2cc1Nc1ncc2c(n1)n(C1CCOCC1)c(=O)n2C [AZD7648] (first compound max 1 µM, 7x7, partner max 10 µM) | -0.0475 | -0.0172 | -0.0197 | -0.0036 | -0.0285 | -0.0015 | 0.0193 | 0.0158 | -0.0556 | -0.0785 | -0.0387 | -0.0059 | -0.0913 | -0.0078 | -0.0209 | 0.523 | 0.185 | 0.295 | 0.467 | 0.385 |
| Cc1c2c(nn1C)CSCc1cc(n(C)n1)CSc1cc(c3ccccc3c1)OCCCc1c(C(=O)O)n(C)c3c-2c(Cl)ccc13 [AZD5991] + Cn1cnc2c(F)c(Nc3ccc(Br)cc3Cl)c(C(=O)NOCCO)cc21 [Selumetinib] (first compound max 1 µM, 7x7, partner max 3 µM) | 0.0483 | 0.0295 | -0.0106 | 0.0054 | -0.0155 | 0.0506 | 0.0256 | -0.0188 | 0.0301 | 0.0081 | 0.0286 | 0.0034 | -0.0349 | 0.0248 | -0.0214 | 0.406 | 0.301 | 0.196 | 0.513 | 0.469 |
| C[C@@H]1COCCN1c1cc(C2([S@](C)(=N)=O)CC2)nc(-c2ccnc3[nH]ccc23)n1 [AZD6738] + O=C(c1cc(Cc2n[nH]c(=O)c3ccccc23)ccc1F)N1CCN(C(=O)C2CC2)CC1 [Olaparib] (first compound max 10 µM, 7x7, partner max 10 µM) | -0.0183 | 0.0381 | -0.014 | -0.0101 | -0.0082 | -0.0539 | -0.0956 | 0.0055 | 0.026 | 0.0087 | -0.007 | -0.0159 | -0.0994 | -0.0361 | -0.0498 | 0.8 | 0.357 | 0.542 | 0.978 | 0.661 |
| NC1(C(=O)N[C@@H](CCO)c2ccc(Cl)cc2)CCN(c2ncnc3[nH]ccc23)CC1 [Capivasertib] + CC(=O)c1c(C)c2cnc(Nc3ccc(N4CCNCC4)cn3)nc2n(C2CCCC2)c1=O [Palbociclib] (first compound max 10 µM, 7x7, partner max 10 µM) | 0.0236 | 0.0585 | 0.0121 | -0.0377 | -0.0168 | 0.0152 | 0.0391 | -0.0553 | -0.0171 | -0.0436 | 0.0379 | 0.0301 | -0.0396 | -0.0211 | -0.009 | 0.481 | 0.23 | 0.372 | 0.688 | 0.714 |
| NC1(C(=O)N[C@@H](CCO)c2ccc(Cl)cc2)CCN(c2ncnc3[nH]ccc23)CC1 [Capivasertib] + CC(C)n1c(=O)n(C)c2cnc3cc(F)c(-c4ccc(OCCCN5CCCCC5)nc4)cc3c21 [AZD1390] (first compound max 10 µM, 7x7, partner max 0.3 µM) | -0.133 | -0.0122 | -0.0438 | -0.0651 | -0.0081 | -0.0278 | -0.0063 | -0.0069 | -0.095 | -0.0512 | -0.0474 | -0.044 | -0.0829 | -0.036 | -0.0482 | 0.265 | 0.156 | 0.336 | 0.401 | 0.621 |
| NC1(C(=O)N[C@@H](CCO)c2ccc(Cl)cc2)CCN(c2ncnc3[nH]ccc23)CC1 [Capivasertib] + CCN(CCO)CCCOc1ccc2c(Nc3cc(CC(=O)Nc4cccc(F)c4)[nH]n3)ncnc2c1 [AZD2811] (first compound max 10 µM, 7x7, partner max 1 µM) | 0.002 | -0.0114 | 0.0737 | -0.015 | 0.0023 | 0.0429 | -0.0072 | -0.0481 | 0.0076 | -0.0044 | 0.0098 | -0.0077 | -0.0223 | -0.0264 | -0.0507 | 0.321 | 0.225 | 0.398 | 0.517 | 0.642 |
| NC1(C(=O)N[C@@H](CCO)c2ccc(Cl)cc2)CCN(c2ncnc3[nH]ccc23)CC1 [Capivasertib] + COc1nnc2ccc(N3CCC(c4ccc(OCCN5CCN(C)C(=O)[C@H]5C)cc4)CC3)nn12 [AZD5153] (first compound max 10 µM, 7x7, partner max 1 µM) | 0.005 | -0.0212 | 0.115 | 0.0004 | 0.0352 | 0.0079 | 0.0133 | -0.0632 | 0.0133 | 0.0016 | 0.0333 | 0.0506 | 0.0138 | -0.0524 | 0.0751 | 0.481 | 0.518 | 0.398 | 0.952 | 0.882 |
| NC1(C(=O)N[C@@H](CCO)c2ccc(Cl)cc2)CCN(c2ncnc3[nH]ccc23)CC1 [Capivasertib] + C[C@@H]1COCCN1C2=NC(=NC(=C2)C3(CC3)[S@](=N)(=O)C)C4=C5C=CNC5=NC=C4 [AZD6738] (first compound max 10 µM, 7x7, partner max 10 µM) | -0.0202 | -0.0137 | -0.011 | -0.128 | 0.0014 | -0.0607 | -0.0014 | -0.0166 | -0.0657 | -0.0119 | -0.0499 | -0.032 | -0.0357 | -0.0308 | -0.0403 | 0.842 | 0.453 | 0.647 | 0.779 | 0.858 |
| NC1(C(=O)N[C@@H](CCO)c2ccc(Cl)cc2)CCN(c2ncnc3[nH]ccc23)CC1 [Capivasertib] + Cn1cnc2c(F)c(Nc3ccc(Br)cc3Cl)c(C(=O)NOCCO)cc21 [Selumetinib] (first compound max 10 µM, 7x7, partner max 10 µM) | 0.0427 | 0.0993 | 0.021 | -0.133 | -0.0064 | 0.0752 | 0.107 | -0.0188 | -0.0031 | 0.0009 | 0.0761 | 0.01 | -0.028 | 0.0089 | 0.0396 | 0.305 | 0.45 | 0.392 | 0.782 | 0.924 |
| COc1cccc2c1C(=O)c1c(O)c3c(c(O)c1C2=O)C[C@@](O)(C(=O)CO)C[C@@H]3O[C@H]1C[C@H](N)[C@H](O)[C@H](C)O1 [Doxorubicin] + Cc1cc2ncnn2cc1Nc1ncc2c(n1)n(C1CCOCC1)c(=O)n2C [AZD7648] (first compound max 1 µM, 7x7, partner max 10 µM) | -0.0164 | 0.103 | 0.0408 | 0.046 | 0.0242 | 0.0332 | 0.0582 | 0.0691 | 0.0122 | 0.0336 | 0.0511 | 0.0345 | -0.0058 | 0.0996 | 0.0569 | 0.663 | 0.23 | 0.524 | 0.952 | 0.593 |
